Assay results taken from patent publication US4710572A, “Histamine H1 antagonists” (American Home Products Corporation, priority 1986, dated 1987).
pIC50: −log10 of the molar value. Where two headings read alike, the source gives them in different places.

Experiments:
[1] = tested on: limbic D2 dopamine receptor; test: Limbic D2 dopamine receptor binding (Fields et al.); details: at 1 μM
[2] = tested on: histamine-induced wheal formation in guinea pig skin; test: Histamine-induced wheal formation in guinea pig skin; type: in vivo
[3] = tested on: histamine-induced deaths in guinea pigs; test: Inhibition of histamine-induced deaths in guinea pigs; type: in vivo, guinea pig
Procedure: The compound exemplified herein, after a one hour pretreatment period, inhibited histamine-induced deaths in guinea pigs over the range of 1-5 mg/kg, with 100 percent effectiveness at the latter dose. At 18 hours post drug treatment the test compound retained 40 percent effectiveness at 10 mg/kg.

[4] = Conditioned avoidance (shelf-jump), Herman et al.; type: in vivo; details: 40 mg/kg
[5] = Modified Geller-Seifter experimentally-induced conflict test; details: in vivo
histamine H1 [6] = target: T1, histamine H1 (Cavia porcellus, UniProt P31389); test: cell-based
Procedure: Subsequently, additional characterization of the compound herein exemplified was carried out in which complete histamine dose response curves were constructed first in the absence of test drug and then repeated in the presence of test drug at a specified concentration. A single experiment of this type allowed calculation of a pKB value from the rightward shift induced by the drug in the histaminic dose response curve, while three such experiments (at three different drug concentrations) allowed calculation of a pA2 value.

histamine H1 [7] = target: T1, histamine H1; test: Histamine-induced contraction of isolated guinea pig ileum, single drug concentration; type: cell-based; parameters: A section of terminal ileum was removed and suspended in aerated 37° C; Tyrodes solution; from tissue; host or cells: terminal ileum of male Hartley guinea pigs; details: histamine 1×10^-7 M; test drug 1×10^-6 M
Procedure: Fresh segments of terminal ileum immediately proximal to Peyer's patch, obtained from male Buckshire guinea pigs, were suspended in 37° C. Tyrode's solution in a tissue bath and aerated. The tissue segments were placed under one gram tension and allowed to equilibrate for one hour. Histamine was added to each tissue bath to a final concentration of 1×10^-7 M. The response was noted as grams tension. Test drug was added, in the presence of histamine, to each bath to a final concentration of 1×10^-6 M. The change in grams tension was noted and the percent reduction in grams tension calculated.

histamine H1 [8] = target: T1, histamine H1; test: Drugs vs. histamine at 1 × 10^-6 M in guinea pig terminal ileum, comparison with -383 analogues; type: cell-based; parameters: A section of terminal ileum was removed and suspended in aerated 37° C; Tyrodes solution; from tissue; host or cells: terminal ileum of male Hartley guinea pigs
Text: Tyrodes solution. […] Tissues were washed several times before repeating the procedure for the next concentration. A different set of 4 tissues was used for each drug.

[9] = Confinement motor activity, Tedeschi et al.; type: in vivo; details: 5 and 10 mg/kg i.p.
[10] = tested on: histamine-induced changes in bronchopulmonary parameters; test: Reversal of histamine-induced changes in bronchopulmonary parameters in the anesthetized guinea pig; type: in vivo
[11] = tested on: histamine-induced paw edema formation; test: Histamine-induced paw edema formation; details: in vivo
[12] = guinea pig ileum, histamine 1 × 10^-6 M, calculated from the table data, read-out: IC50 (inhibitory concentration50)

T1 sequence (P31389 whole entry): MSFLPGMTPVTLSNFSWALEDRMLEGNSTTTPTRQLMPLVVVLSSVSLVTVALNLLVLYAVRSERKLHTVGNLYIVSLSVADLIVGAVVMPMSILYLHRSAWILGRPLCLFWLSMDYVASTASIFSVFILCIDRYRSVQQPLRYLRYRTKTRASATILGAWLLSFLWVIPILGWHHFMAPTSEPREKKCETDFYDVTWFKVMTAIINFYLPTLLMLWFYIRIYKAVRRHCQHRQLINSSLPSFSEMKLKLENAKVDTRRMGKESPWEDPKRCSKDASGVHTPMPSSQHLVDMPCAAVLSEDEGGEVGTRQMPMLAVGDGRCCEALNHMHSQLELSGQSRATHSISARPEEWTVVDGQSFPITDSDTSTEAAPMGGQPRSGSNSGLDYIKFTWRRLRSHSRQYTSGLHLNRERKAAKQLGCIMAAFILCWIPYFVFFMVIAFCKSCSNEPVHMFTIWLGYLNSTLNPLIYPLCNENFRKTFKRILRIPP

Row | SMILES | inhibition of limbic D2 dopamine receptor binding [1] [%] | effectiveness against wheal formation ([2]; 1.7 mg/kg, 18 hour pretreatment) | suppression of wheal formation ([2]; highest dose (2.1 mg/kg), one hour pretreatment) | effectiveness in inhibition of histamine-induced deaths ([3]; 5 mg/kg, one hour pretreatment) [%] | effectiveness in inhibition of histamine-induced deaths ([3]; 10 mg/kg, 18 hours post drug treatment) [%] | conditioned avoidance (shelf-jump) activity [4] | effect in modified Geller-Seifter conflict test [5] | Kb (histamine H1 [6]) [nM] | type of antagonism (shift of histamine dose response curve) (histamine H1 [6]; isolated guinea pig ileum) | potency relative to terfenadine (histamine H1 [6]; vs terfenadine) | antagonist action against the histamine-induced contractile response in the isolated guinea pig ileum (histamine H1 [7]) | pIC50 (histamine H1 [8]) | potency relative to the -383 dichloro compound (histamine H1 [8]; ratio of IC50's) | potency relative to the -383 monochloro compound (histamine H1 [8]; ratio of IC50's) [times] | sedative effect in confinement motor activity [9] | reversal of histamine-induced changes in bronchopulmonary parameters [10] | inhibition of histamine-induced paw edema formation [11] | pIC50 (histamine H1 [8]; [12])
1 | Cn1c(=O)c2c(ncn2CCCN2CCN(C(c3ccc(F)cc3)c3ccc(F)cc3)CC2)n(C)c1=O [Difluoro compound, 7-[3-[4-bis(4-fluorophenyl)methyl]-1-piperazinyl]propyl-3,7-dihydro-1,3-dimethyl-1H-purine-2,6-dione] | 43 | retained maximal effectiveness | Maximum suppression of wheal formation | 100 | 40 | inactive | mild stimulation | 6.31 | parallel rightward shifts with no decrease in the maximum response | about five times as potent as terfenadine | potent, competitive antagonist action | 7.42 | about 21 times | 10 | no sedative effect | reversal of histamine-induced changes in bronchopulmonary parameters | inhibition of histamine-induced paw edema formation | –
2 | Cn1c(=O)c2c(ncn2CCCCN2CCN(C(c3ccc(Cl)cc3)c3ccc(Cl)cc3)CC2)n(C)c1=O [-383 Dichloro compound, 7-[4-[4-(4',4"-dichlorodiphenylmethyl)piperazinyl-(1)]-n-butyl]theophylline, reference compound] | – | – | – | – | – | – | – | – | – | – | – | – | – | – | – | – | – | 6.10
3 | Cn1c(=O)c2c(ncn2CCCN2CCN(C(c3ccccc3)c3ccc(Cl)cc3)CC2)n(C)c1=O (stereo not shown) [-383 Monochloro compound, 7-[3-[4-p-chlorobenzhydrylpiperazinyl-(1)]-n-propyl]-theophylline, reference compound] | – | – | – | – | – | – | – | – | – | – | – | – | – | – | – | – | – | 6.43
